Results reported in PMC10564737, “Structure-based design of a phosphotyrosine-masked covalent ligand targeting the E3 ligase SOCS2” (Nature Communications, 2023).
Where “and” joins values, the source holds several entries; their conditions need not be identical. Identical values can stand only once.

Legend:
[1] = biological target: T1, SBC2 (Homo sapiens, UniProt O14508); experiment: 19F ligand-observed displacement (CPMG) NMR assay; assay type: binding; details: Table 1, n = 1
T1 construct: SOCS2 (amino acids 32–198); His6 (N, cleaved yes); made in house; host or cells: E. coli BL21(DE3)
Description: First, we decided to optimize the N-terminal region of 1 while maintaining the N-methylamide group at the C-terminus. To generate analogs rapidly, we employed a solid phase synthesis using methyl indole AM resin. After Fmoc deprotection, the resin was loaded with Fmoc-Tyr (PO(OBzl)2)-OH[29]. Subsequent coupling with various commercially available carboxylic acids and cleavage with TFA allowed the rapid synthesis of N-methylcarboxamide phosphotyrosines (Supplementary Fig. 1). […] Binding affinities of the synthesized compounds for SOCS2 were measured via two orthogonal biophysical binding assays: (1) surface plasmon resonance (SPR) with SBC2 immobilized on the chip (Supplementary Fig. 7); and (2) ^19F ligand-observed displacement NMR assays, providing two orthogonal biophysical measurements of dissociation constants (KD)[29],[31]. We found an excellent correlation between the KD values measured via the two techniques (Table 1). […]
Experiments were performed using an Avance III 500 MHz Bruker spectrometer equipped with a 5 mm CPQCI 1H/19 F/13 C/15 N/D Z-GRD cryoprobe at 298 K as described previously. Spectra were recorded using 80 scans of a CPMG pulse sequence that attenuates broad resonances. […] All NMR data were processed and analyzed using TopSpin (Bruker). The dissociation constant was calculated as described previously.

[2] = biological target: T1, SBC2; experiment: Surface plasmon resonance (SPR) with SBC2 immobilized on the chip; assay type: binding
Description: First, we decided to optimize the N-terminal region of 1 while maintaining the N-methylamide group at the C-terminus. To generate analogs rapidly, we employed a solid phase synthesis using methyl indole AM resin. After Fmoc deprotection, the resin was loaded with Fmoc-Tyr (PO(OBzl)2)-OH[29]. Subsequent coupling with various commercially available carboxylic acids and cleavage with TFA allowed the rapid synthesis of N-methylcarboxamide phosphotyrosines (Supplementary Fig. 1). We introduced different substituents at the N-terminus to cover a range of physicochemical properties (e.g. alicyclic, heterocyclic, aromatic with electron-withdrawing and electron-donating groups) to maximize potential interactions (see Table 1 for representative examples). Binding affinities of the synthesized compounds for SOCS2 were measured via two orthogonal biophysical binding assays: (1) surface plasmon resonance (SPR) with SBC2 immobilized on the chip (Supplementary Fig. 7); and (2) ^19F ligand-observed displacement NMR assays, providing two orthogonal biophysical measurements of dissociation constants (KD)[29],[31]. We found an excellent correlation between the KD values measured via the two techniques (Table 1). Para-substituted benzyl moieties yielded the greatest contributions to binding affinity and there were only slight differences between electron-withdrawing groups such as a methyl ester and electron-donating such as methoxy group.
SPR experiments were performed using a Biacore S200 instrument (GE Healthcare) in 20 mM HEPES pH 7.5, 150 mM NaCl, 1 mM TCEP, 0.005% Tween20, 2% DMSO buffer at 10 °C. Biotinylated SBC2 was immobilized onto a chip surface (the final surface density of biotinylated SBC2 was ~3000–4000 RU). AviTagged-SBC was biotinylated using BirA enzyme as per manufacturer’s protocol (Avidity). Compounds were serially diluted in the running buffer and injected individually: contact time 60 s, flow rate 30 μL/min, dissociation time 150 s, using a stabilization period of 30 s and syringe wash (50% DMSO) between injections. Data analysis was carried out using Biacore Evaluation Software (GE Healthcare). All data were double-referenced for reference surface and blank injection. The processed sensograms were fit to a steady-state affinity using a 1:1 binding model for KD estimation.

[3] = biological target: T1, SBC2; experiment: Isothermal titration calorimetry (ITC), direct titration; assay type: binding; details: for Kd: ITC KD, direct ITC, 298 K
Experimental: Experiments were performed with ITC200 instrument (Malvern) in 100 mM HEPES pH 7.5, 50 mM NaCl, 0.5 mM TCEP at 298 K. The ITC titration consisted of 0.4 μl initial injection (discarded during data analysis) followed by 19 of 2 μl injections at 120 s interval between injections. 1 mM of the ligands in 2–4% DMSO were titrated into 100 μM SBC2. […] Binding data was subtracted from a control titration where ligand was titrated into buffer, and fitted using a one-set-of-site binding model to obtain dissociation constant (Kd), binding enthalpy (ΔH), and stoichiometry (N) using MicroCal PEAQ-ITC Analysis Software1.1.0.1262 and MicroCal ITC-ORIGIN Analysis Software 7.0 (Malvern).

[4] = biological target: GHR pY595 peptide (Homo sapiens) (UniProt P10912); details: cited from earlier work
[5] = Table 2, second-round library, n = 1

T1 sequence (O14508 32-198): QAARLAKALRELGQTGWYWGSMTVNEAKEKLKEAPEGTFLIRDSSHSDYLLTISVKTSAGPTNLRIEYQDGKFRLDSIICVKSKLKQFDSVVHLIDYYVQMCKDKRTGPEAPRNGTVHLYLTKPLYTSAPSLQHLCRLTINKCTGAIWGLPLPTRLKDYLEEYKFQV
T1 sequence (Q15370 1-104 partner limits assumed): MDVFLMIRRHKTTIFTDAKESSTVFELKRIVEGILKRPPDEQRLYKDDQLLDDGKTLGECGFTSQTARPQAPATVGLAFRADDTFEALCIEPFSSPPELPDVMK
T1 sequence (Q15369 17-112 partner limits assumed): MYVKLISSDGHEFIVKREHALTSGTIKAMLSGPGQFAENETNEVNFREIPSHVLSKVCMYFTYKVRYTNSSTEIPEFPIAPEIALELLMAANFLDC
Chain of GHR pY595 peptide (Homo sapiens) (P10912 whole entry, looked up, tested part not stated): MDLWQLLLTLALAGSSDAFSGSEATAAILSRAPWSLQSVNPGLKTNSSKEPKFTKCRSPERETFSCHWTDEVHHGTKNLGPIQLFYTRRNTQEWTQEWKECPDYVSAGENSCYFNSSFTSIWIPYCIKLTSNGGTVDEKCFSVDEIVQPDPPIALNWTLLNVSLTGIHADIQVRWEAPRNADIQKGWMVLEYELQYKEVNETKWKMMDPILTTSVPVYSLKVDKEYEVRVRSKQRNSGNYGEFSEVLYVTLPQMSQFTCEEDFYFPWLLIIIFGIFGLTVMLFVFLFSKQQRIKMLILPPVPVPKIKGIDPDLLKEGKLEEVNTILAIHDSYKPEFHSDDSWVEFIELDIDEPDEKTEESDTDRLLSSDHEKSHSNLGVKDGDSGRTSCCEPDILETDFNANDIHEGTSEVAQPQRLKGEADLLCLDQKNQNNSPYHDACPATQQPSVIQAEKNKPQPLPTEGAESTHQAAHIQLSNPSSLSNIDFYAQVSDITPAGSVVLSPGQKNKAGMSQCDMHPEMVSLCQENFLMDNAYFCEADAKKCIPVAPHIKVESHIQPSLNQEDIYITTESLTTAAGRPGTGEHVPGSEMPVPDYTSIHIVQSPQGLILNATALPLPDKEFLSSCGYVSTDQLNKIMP
Chain of SOCS2 SH2 (O14508 45-159): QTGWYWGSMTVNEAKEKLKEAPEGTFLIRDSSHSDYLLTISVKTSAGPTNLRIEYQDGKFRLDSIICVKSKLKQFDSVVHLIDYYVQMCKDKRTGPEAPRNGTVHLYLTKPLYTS

Row | Molecule | Kd [1] | Kd ([2]; Table 1, n = 1) | Kd [3] | Kd [2, 5] | ITC ΔG [3] | ITC −TΔS [3] | further results
1 | CNC(=O)[C@H](Cc1ccc(OP(=O)(O)O)cc1)NC(C)=O [Compound 1] | 186 µM | 269 µM | 192 µM and 190 µM |  |  |  | weaker binding than the full phosphorylated peptide [3]: 100 fold
2 | CNC(=O)[C@H](Cc1ccc(OP(=O)(O)O)cc1)NC(=O)Cc1ccc(F)cc1 [Compound 5] | 32 µM | 49 µM |  |  |  |  | 
3 | SOCS2 SH2 (from UniProt O14508) |  |  |  |  |  |  | Kd [4]: 1.1 µM
4 | CCc1cc(CNC(=O)[C@H](Cc2ccc(OP(=O)(O)O)cc2)NC(=O)Cc2ccc(F)cc2)ccc1F [Compound 12, (S)-4-(3-((3-ethyl-4-fluorobenzyl)amino)-2-(2-(4-fluorophenyl)acetamido)-3-oxopropyl)phenyl phosphate] |  |  | 0.5 µM and 0.51 µM | 2.2 µM | -8.59 kcal/mol | -0.43 kcal/mol | ITC ΔH [3]: -8.16 kcal/mol
5 | O=C(Cc1ccc(F)cc1)N[C@@H](Cc1ccc(OP(=O)(O)O)cc1)C(=O)NCc1ccc(F)cc1 [Compound 9, (S)-4-(3-((4-fluorobenzyl)amino)-2-(2-(4-fluorophenyl)acetamido)-3-oxopropyl)phenyl phosphate] |  |  | 2.6 µM | 4.2 µM | -7.65 kcal/mol | -3.55 kcal/mol | improvement of binding affinity compared to 5 ([2]; SPR): 10 fold
